The target in series [1] is T1, human GABAA receptor α1, β2 and γ2 (CHO-K1 cells) (Homo sapiens, UniProt P14867+P18507+P47870).
T1 construct: expressed in transfected cells; host or cells: CHO-K1 cells, stably transfected
In words: cell-based. To be noted: GABAA (α1β2γ2) CHO-K1 cell. The procedure:
Chinese hamster ovary (CHO)-K1 cells transfected stably with human GABAA receptor α1, β2 and γ2 subunit cDNAs were used. The cells were plated onto collagen-coated 35-mm cell culture dishes at low density for 1–7 days before recording. Test solutions were prepared in the extracellular solution on the day the patch-clamp assay was performed. The intracellular solution consisted of 22 mM KCl, 110 mM K-aspartate, 8 mM NaCl, 1 mM MgCl2, 1 mM CaCl2, 10 mM ethylene glycol tetraacetic acid, 5 mM Na2ATP, 10 mM hydroxyethyl piperazineethanesulfonic acid (HEPES) (adjusted to pH 7.2 using KOH), while the extracellular solution contained 145 mM NaCl, 4 mM KCl, 2 mM CaCl2, 2 mM MgCl2, 10 mM HEPES (adjusted to pH 7.4 using NaOH). The assay was performed at room temperature. Cells were maintained at −70 mV and the potentiation effect was assessed by co-application of the test compound with EC20 of muscimol after the cell was pre-incubated with the test compound for 45 s. GABA EC20 measured individually in each cell. The amplitude of the Cl− current in response to muscimol and/or test compound was determined. The response to the co-application of the test compound and muscimol was normalized to the control muscimol response as a percentage of the control. A potentiation effect was indicated by a value >100% of the control response. EC50 values were calculated using the four parameter logistic equation, where E was the amplitude of the muscimol-induced current in the presence of the anesthetic at concentration [A], EMAX was the amplitude of the response in the presence of a maximally effective concentration of the anesthetic, EC50 was the concentration of anesthetic producing a half-maximal enhancement of the muscimol-induced response and nH was the Hill coefficient. [drawing 1]

Series [2] in a line: In vitro metabolic half-life in human whole blood. The class given is in vitro ADME. To be noted: male, Human (n = 4), 37°C, read-out: Mean t1/2 Value. Here is the method: Human whole blood stability experiments were conducted in whole blood from four human donors (male, 18–25 years). Single experiments were conducted with pooled blood from Sprague-Dawley rats (male, 8 weeks, n = 3), New Zealand White rabbits (male, 8–10 weeks, n = 3), Beagle dogs (male, 2–3 years, n = 3) and Cynomolgus monkeys (male, 3–4 years, n = 3). All the blood samples were provided by Xuzhou Medical College. A 1.35-ml aliquot of blood was warmed at 37°C for 5 min and hypnotic (from a 40 mM stock in DMSO solution) was added to a final concentration of 200 µM. After the specified incubation time, a 150-µl sample was removed and the metabolic reaction was quenched using 150-µl acetonitrile. Zero time-point samples were prepared by adding 150-µl acetonitrile (using a 4 mM stock in DMSO) to 150-µl blood before addition of the hypnotic. The quenched samples were centrifuged, and the supernatant was separated and stored at −20°C until analyzed. Hypnotic concentrations in thawed samples were determined by high-performance liquid chromatography using a 3-µm phenyl 4.6×50-mm C-A-25, ACE column with the UV detector set at 240 nm. […] The lower limit of quantitation of this assay is 3 µM and the accuracy within 15% at 10 µM. The metabolic half-lives were quantified from the incubation time-dependent change in drug concentration.

T1 sequence (P14867 28-456): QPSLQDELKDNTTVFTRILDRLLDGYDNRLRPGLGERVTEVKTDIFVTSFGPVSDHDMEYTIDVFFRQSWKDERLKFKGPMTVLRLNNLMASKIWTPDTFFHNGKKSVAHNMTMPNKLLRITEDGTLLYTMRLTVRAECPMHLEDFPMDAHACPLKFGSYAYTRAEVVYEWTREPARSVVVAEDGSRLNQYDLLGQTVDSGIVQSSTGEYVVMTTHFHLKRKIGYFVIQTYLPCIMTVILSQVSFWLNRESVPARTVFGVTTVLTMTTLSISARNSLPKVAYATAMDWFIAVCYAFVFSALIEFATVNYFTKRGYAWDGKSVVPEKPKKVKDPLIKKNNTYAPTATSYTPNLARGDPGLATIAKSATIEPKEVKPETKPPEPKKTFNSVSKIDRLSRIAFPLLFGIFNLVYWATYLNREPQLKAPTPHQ
T1 sequence (P47870 25-512 limits assumed): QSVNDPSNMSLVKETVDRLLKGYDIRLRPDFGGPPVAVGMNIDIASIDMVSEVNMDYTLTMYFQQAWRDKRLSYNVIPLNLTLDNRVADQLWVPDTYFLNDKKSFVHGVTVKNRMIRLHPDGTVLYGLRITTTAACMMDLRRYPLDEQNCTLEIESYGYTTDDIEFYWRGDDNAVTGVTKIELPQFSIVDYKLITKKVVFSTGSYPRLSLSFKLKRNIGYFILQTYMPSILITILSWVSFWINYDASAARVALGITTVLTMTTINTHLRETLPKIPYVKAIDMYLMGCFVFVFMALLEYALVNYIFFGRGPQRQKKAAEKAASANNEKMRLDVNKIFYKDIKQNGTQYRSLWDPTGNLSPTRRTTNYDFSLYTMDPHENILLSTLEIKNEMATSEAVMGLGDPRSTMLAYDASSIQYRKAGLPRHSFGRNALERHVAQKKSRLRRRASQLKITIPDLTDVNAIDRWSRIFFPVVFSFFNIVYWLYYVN
T1 sequence (P18507 40-475): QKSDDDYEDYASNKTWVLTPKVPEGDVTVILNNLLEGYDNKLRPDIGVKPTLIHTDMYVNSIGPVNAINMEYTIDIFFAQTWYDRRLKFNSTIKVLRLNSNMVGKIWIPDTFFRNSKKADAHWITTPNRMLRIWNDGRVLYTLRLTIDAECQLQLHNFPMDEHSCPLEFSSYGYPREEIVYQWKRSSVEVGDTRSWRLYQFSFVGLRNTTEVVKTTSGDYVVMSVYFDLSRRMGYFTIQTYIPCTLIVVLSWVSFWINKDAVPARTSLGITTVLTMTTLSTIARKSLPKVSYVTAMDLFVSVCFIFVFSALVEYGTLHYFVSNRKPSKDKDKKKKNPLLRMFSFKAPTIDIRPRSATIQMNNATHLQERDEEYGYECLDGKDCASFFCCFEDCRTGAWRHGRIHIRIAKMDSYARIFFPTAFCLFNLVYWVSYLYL

With `CCOc1cc(CC(=O)OCC(F)(F)F)ccc1OCC(=O)N(CC)CC` [Compound 5j, 2,2,2-trifluoroethyl 2-(4-(2-(diethylamino)-2-oxoethoxy)-3-ethoxyphenyl)acetate], in series [1], the “maximum potentiation relative to that of propanidid” value is on record as around 150% and the “maximum potentiation relative to that produced by propofol” value is “approximately 50%”. In series [1] (patch clamp, read-out: EC50, potentiation of EC20 muscimol evoked chloride currents), the EC50 is 12 µM. In addition, the half-life at 200 µM in series [2] worked out at 25.5 ± 5.6 min.
